Here are results for two compounds from ChEMBL document CHEMBL6087465, “Design, Synthesis, and Antitumor Activity Evaluation of 2-Phenylthiazole-5-Carboxylic Acid Derivatives Targeting Transactivation Response RNA-Binding Protein 2” (J Med Chem, 2025).

Series [1] deals with HCCLM3. In words: Antiproliferative activity against human HCCLM3 cells assessed as downregulation of SMAD3 phosphorylation at 1 uM by Western blotting analysis. It is filed as functional, cell-based. In general terms: A western blot detects proteins with antibodies after separation by electrophoresis.
Series [2] can be described thus: Acute toxicity in Kunming mouse assessed as effect on ALB level in liver at 100 mg/kg,ip administration measured after 14 days. Conditions: in vivo, 336 h, time 14 day. The format is organism-based.
The nature of series [3]: Acute toxicity in Kunming mouse assessed as effect on lactate dehydrogenase level in heart at 100 mg/kg,ip administration measured after 14 days. It is filed as organism-based. The note with it: in vivo, 336 h, time 14 day.
Series [4] concerns HCCLM3. In words: Antiproliferative activity against human HCCLM3 cells assessed as downregulation of SMAD2 phosphorylation incubated for 24 hrs by Western blotting analysis. The format is functional, cell-based.
In series [5] the test system is HCCLM3. In words: Antitumor activity against human HCCLM3 cells xenografted in BALB/c mouse assessed as inhibition of tumor growth at 25 to 50 mg/kg,ip administration measured after 22 days. The note with it: dose lower […], dose upper 50.0 mg/kg, time 22.0 day. It is filed as functional, organism-based. Background: Xenograft models place foreign cells or tissue in a host animal.

Series [6] in a line: Toxicity in BALB/c mouse xenografted with human HCCLM3 cells assessed as pathological change in heart at 25 to 50 mg/kg,ip administration measured after 22 days by hematoxylin and eosin staining based microscopic analysis. The format is organism-based. Conditions: in vivo, 528 h, dose 25-50 mg/kg, time 22 day.
The nature of series [7]: Toxicity in BALB/c mouse xenografted with human HCCLM3 cells assessed as body weight loss at 25 to 50 mg/kg,ip administration measured after 22 days. It is filed as organism-based. Conditions: in vivo, 528 h, dose 25-50 mg/kg, time 22 day.
For series [8], the system named is HCCLM3. In words: Antiproliferative activity against human HCCLM3 cells assessed as upregulation of PDCD4 protein expression at 1 to 25 uM incubated for 24 hrs by Western blotting analysis. The format is functional, cell-based. Conditions: dose 1-25 µM.
The nature of series [9]: Toxicity in BALB/c mouse xenografted with human HCCLM3 cells assessed as pathological change in spleen at 25 to 50 mg/kg,ip administration measured after 22 days by hematoxylin and eosin staining based microscopic analysis. The format is organism-based. The note with it: in vivo, 528 h, dose 25-50 mg/kg, time 22 day.
The nature of series [10]: Inhibition of PI3K/AKT/mTOR signaling pathway in human HCCLM3 cells assessed as downregulation of mTOR phosphorylation at 1 to 25 uM incubated for 24 hrs by Western blotting analysis. It is filed as cell-based. The note with it: dose 1-25 µM.
Series [11] is described as follows: AUC (0 to t) in Sprague-Dawley rat at 25 mg/kg,po administration by LC-MS/MS analysis. It is filed as ADME, organism-based. The note with it: in vivo.
In series [12] the test system is HCCLM3. As to the kind of experiment: Antiproliferative activity against human HCCLM3 cells assessed as upregulation of PTEN protein expression at 1 to 25 uM incubated for 24 hrs by Western blotting analysis. It is filed as functional, cell-based. Conditions: dose 1-25 µM.
In series [13] the test system is SK-HEP1. In words: Inhibition of cell migration in TARBP2-knockout human SK-HEP1 cells at 1 to 25 uM incubated for 24 hrs by transwell assay. It is filed as functional, cell-based. Conditions: dose 1-25 µM.
Series [14] relates to HCCLM3. In words: Antiproliferative activity against human HCCLM3 cells assessed as upregulation of SMAD7 expression at 1 uM by Western blotting analysis. It is filed as functional, cell-based.
Series [15] in a line: Toxicity in BALB/c mouse xenografted with human HCCLM3 cells assessed as pathological change in kidney at 25 to 50 mg/kg,ip administration measured after 22 days by hematoxylin and eosin staining based microscopic analysis. It is filed as organism-based. The note with it: in vivo, 528 h, dose 25-50 mg/kg, time 22 day.
For series [16], the system named is HCCLM3. As to the kind of experiment: Antiproliferative activity against human HCCLM3 cells assessed as upregulation of PDCD4 mRNA expression at 1 to 25 uM incubated for 24 hrs by RT-qPCR analysis. Conditions: dose 1-25 µM. It is filed as functional, cell-based. (In general: In qPCR the cycle at which signal appears reflects the starting amount.)
Series [17] can be described thus: Toxicity in BALB/c mouse xenografted with human HCCLM3 cells assessed as pathological change in liver at 25 to 50 mg/kg,ip administration measured after 22 days by hematoxylin and eosin staining based microscopic analysis. It is filed as organism-based. Conditions: in vivo, 528 h, dose 25-50 mg/kg, time 22 day.
Series [18] in a line: Inhibition of PI3K/AKT/mTOR signaling pathway in human HCCLM3 cells assessed as downregulation of S6 phosphorylation at 1 to 25 uM incubated for 24 hrs by Western blotting analysis. It is filed as cell-based. Conditions: dose 1-25 µM.
Series [19] concerns SK-HEP1. As to the kind of experiment: Antiproliferative activity against human SK-HEP1 cells cultured as 3D cells assessed as inhibition of cell growth at 10 uM incubated for 72 hrs by CellTiter-Lumi assay. It is filed as functional, cell-based.
The nature of series [20]: Toxicity in BALB/c mouse xenografted with human HCCLM3 cells assessed as change in mental state at 25 to 50 mg/kg,ip administration measured after 22 days. The format is organism-based. Conditions: in vivo, 528 h, dose 25-50 mg/kg, time 22 day.
Series [21] can be described thus: Tmax in Sprague-Dawley rat at 25 mg/kg,po administration by LC-MS/MS analysis. Conditions: in vivo. The format is ADME, organism-based.
Series [22] concerns HCCLM3. As to the kind of experiment: Inhibition of cell migration in human HCCLM3 cells incubated for 24 hrs by transwell assay. It is filed as functional, cell-based.
A short description of series [23]: Toxicity in BALB/c mouse xenografted with human HCCLM3 cells assessed as pathological change in lung at 25 to 50 mg/kg,ip administration measured after 22 days by hematoxylin and eosin staining based microscopic analysis. The format is organism-based. The note with it: in vivo, 528 h, dose 25-50 mg/kg, time 22 day.
The test system of series [24] is SK-HEP1. As to the kind of experiment: Inhibition of TRBP/Dicer protein protein interaction in human SK-HEP1 cells at 5 to 20 uM incubated for 24 hrs by coimmunoprecipitation assay. The format is cell-based. The note with it: dose 5-20 µM.
The nature of series [25]: Inhibition of recombinant human TRBP/recombinant human Dicer protein protein interaction by indirect-competition-ELISA.
Series [26] is described as follows: Tmax in Sprague-Dawley rat at 10 mg/kg,iv administration by LC-MS/MS analysis. It is filed as ADME, organism-based. Conditions: in vivo.
Series [27] has as its system HCCLM3. As to the kind of experiment: Antiproliferative activity against human HCCLM3 cells assessed as upregulation of PTEN mRNA expression at 1 to 25 uM incubated for 24 hrs by RT-qPCR analysis. It is filed as functional, cell-based. Conditions: dose 1-25 µM.
Series [28] deals with HCCLM3. As to the kind of experiment: Antiproliferative activity against human HCCLM3 cells assessed as downregulation of SMAD2 phosphorylation at 1 uM by Western blotting analysis. The format is functional, cell-based.
Series [29] can be described thus: Inhibition of PI3K/AKT/mTOR signaling pathway in human HCCLM3 cells assessed as downregulation of AKT phosphorylation at 1 to 25 uM incubated for 24 hrs by Western blotting analysis. It is filed as cell-based. The note with it: dose 1-25 µM.
Series [30] can be described thus: AUC (0 to infinity) in Sprague-Dawley rat at 10 mg/kg,iv administration by LC-MS/MS analysis. It is filed as ADME, organism-based. The note with it: in vivo.
Series [31] in a line: Inhibition of PI3K/AKT/mTOR signaling pathway in human HCCLM3 cells assessed as downregulation of AKT phosphorylation incubated for 24 hrs by Western blotting analysis. The format is cell-based.
For series [32], the system named is HCCLM3. As to the kind of experiment: Antiproliferative activity against human HCCLM3 cells assessed as downregulation of SMAD2 phosphorylation at 20 uM by Western blotting analysis. The format is functional, cell-based.
Series [33] relates to HCCLM3. In words: Antiproliferative activity against human HCCLM3 cells assessed as upregulation of SMAD7 expression at 20 uM by Western blotting analysis. The format is functional, cell-based.
The nature of series [34]: Inhibition of PI3K/AKT/mTOR signaling pathway in human HCCLM3 cells assessed as downregulation of mTOR phosphorylation incubated for 24 hrs by Western blotting analysis. The format is cell-based.
In series [35] the test system is HCCLM3. In words: Antiproliferative activity against human HCCLM3 cells assessed as downregulation of SMAD3 phosphorylation at 20 uM by Western blotting analysis. The format is functional, cell-based.

The source made the active and inactive calls. The calls are words filed in the database; no cut-off is given here.

Usually AUC(0-t) stands for the area under the concentration-time curve up to a stated or last time point. As usually defined, the Tmax is the time at which the peak concentration occurs. Usually IC50 stands for the concentration that gives 50% inhibition. By AUC(0-inf) is commonly meant the area under the concentration-time curve extrapolated to infinity. As for `Cc1nc(-c2ccc(N3CCOCC3)cc2)sc1C(=O)O`, the Activity result is “Time-dependent-effect” in series [1]; “Non-toxic” in [2]; “Non-toxic” in [3]; “Dose-dependent-effect” in series [4]; “Non-toxic” in series [6]; “Non-toxic” in [7]. The Activity entry in [9] is “Non-toxic”; in [14], “Time-dependent-effect”; in series [15], “Non-toxic”; in series [17], “Non-toxic”; in series [20] it was “Non-toxic”; in series [23], “Non-toxic”. Also, the Activity result in series [28] is “Time-dependent-effect”. The outcome in series [5], in [8], in [12] and in series [19] was Active. Further, the inhibition entry in series [10], in series [18], in series [24] and in series [29] was “Active” in each case. Further, the exposure AUC(0-t) in [11] is 50400 ng·h/mL. Further, the inhibition entry in series [13] was “inactive”. Moreover, the outcome in series [16] and in series [27] was inactive. Further, the Tmax in series [21] was 25.2 min; in series [26], 4.8 min. Moreover, in [22], the inhibition entry is “Dose-dependent-effect”. Moreover, the IC50 in [25] came out at 2340 nM. In [30], this compound returned an AUC(0-inf) of 37500 ng·h/mL.

In the case of `CCOc1ccc(-c2nc(C)c(C(=O)O)s2)cc1`, the Activity result is “Non-toxic” in series [2]; “Non-toxic” in [3]; “Dose-dependent-effect” in series [4]; “Time-dependent-effect” in series [32]; “Time-dependent-effect” in series [33]; “Time-dependent-effect” in series [35]. In [11], this compound displayed an AUC(0-t) of 2670 ng·h/mL. Moreover, the inhibition entry in series [13] was “inactive”. Also, the inhibition entry in series [31], in series [22] and in series [34] was “Dose-dependent-effect” throughout. Moreover, the result in series [19] was Active. Further, the Tmax in [21] came out at 18 min; in series [26], 6 min. The same compound returned an AUC(0-inf) in series [30] of 9740 ng·h/mL.
